Measurements: patent US20050277630A1, “Antibacterial agents” (priority 2003, published 2005)
Values after ≈ are worked out from the molar mass of the structure shown.

Legend:
E. faecalis MGH-2 = assay: Antibacterial assay (Test A), standard microtitration, MIC; assay type: cell-based; conditions: Gram Positive Bacteria, strain MGH-2; for MIC: Enterococcus faecalis, MGH2
Protocol: (§1) The compounds of the present invention were tested against an assortment of Gram-negative and Gram-positive organisms using standard microtitration techniques (Cohen et. al., Antimicrob., 1985; 28: 766; Heifetz, et. al., Antimicrob., 1974; 6: 124).

S pyogenes C203 = assay: as above; assay type: cell-based; conditions: Gram Positive Bacteria; strain C203
Protocol: as §1

S. aureus UC-76 = assay: as above; assay type: cell-based; conditions: Gram Positive Bacteria, strain UC-76; for MIC: Staphylococcus aureus, UC76
Protocol: as §1

E. coli Tol C = assay: as above; assay type: cell-based; conditions: for MIC: Escherichia coli, read-out: MIC E. coli Tol C; for MIC E. coli Tol C: Gram Negative Bacteria, strain Tol C
Protocol: as §1

H. influenzae HI3542 = assay: as above; assay type: cell-based; conditions: Gram Negative Bacteria, strain HI3542; for MIC: Haemophilus influenzae
Protocol: as §1

M. catarrhalis BC3534 = assay: as above; assay type: cell-based; conditions: strain BC3534; for MIC: Moraxella catarrhalis, BC3534, Gram Negative Bacteria; for MIC M. catarrhalis BC3534: Gram Negative Bacteria
Protocol: as §1

CC(=O)NC[C@H]1CN(c2ccc3c(c2)CCSC(=CN(C)C)C3=O)C(=O)O1 showed a melting point of 221 to 222 °C.
Compound CC(=O)NC[C@H]1CN(c2ccc3c(c2)CCSc2cn[nH]c2-3)C(=O)O1 has a melting point of 186 to 187 °C.
With CC(=O)NC[C@H]1CN(c2ccc3c(c2)CCSc2cnc(N)nc2-3)C(=O)O1 the melting point was 190 to 191 °C (dec.).
CC(=O)NC[C@H]1CN(c2ccc3c(c2)CCS(=O)(=O)C(=CN(C)C)C3=O)C(=O)O1 showed a melting point of 261 to 263 °C.
Work on CC(=O)NC[C@H]1CN(c2ccc3c(c2)CCS(=O)(=O)c2cn[nH]c2-3)C(=O)O1 yielded a melting point of 292 to 293 °C.
With CC(=O)NC[C@H]1CN(c2ccc3c(c2)CCS(=O)(=O)c2cnc(N)nc2-3)C(=O)O1 the melting point was 211 to 213 °C (dec.).
With CC(=O)NC[C@H]1CN(c2ccc3c(c2)CCS(=O)(=O)c2cnoc2-3)C(=O)O1 the melting point was 211 to 212 °C.
Work on CC(=O)NC[C@H]1CN(c2ccc3c(c2)CCSCC3=O)C(=O)O1 yielded a melting point of 232 to 233 °C.
Work on CC(=O)NC[C@H]1CN(c2ccc3c(c2)CCNC(=O)N3)C(=O)O1 yielded a melting point of 177 to 178 °C.
With CC(=O)NC[C@H]1CN(c2ccc3c(c2)CCC(N)C(=O)N3)C(=O)O1 (stereo partly drawn) the melting point was > 160 °C (dec.).
CC(=O)NC[C@H]1CN(c2ccc3c(c2)OCCc2c(-c4ccc(F)cc4)n[nH]c2-3)C(=O)O1 gave an MIC (E. faecalis MGH-2) of 1 µg/mL (≈ 2.29 µM), an MIC (S pyogenes C203) of 0.5 µg/mL (≈ 1.15 µM) and an MIC (S. aureus UC-76) of 1 µg/mL (≈ 2.29 µM).
CC(=O)NC[C@H]1CN(c2ccc3c(c2)OCCc2c(-c4ccncc4)n[nH]c2-3)C(=O)O1 [Example 22, (S)—N-[2-Oxo-3-(3-pyridin-4-yl-4,5-dihydro-1H-6-oxa-1,2-diaza-benzo[e]azulen-8-yl)-oxazolidin-5-ylmethyl]-acetamide] showed an MIC (E. coli Tol C) greater than 64 µg/mL, an MIC (E. faecalis MGH-2) of 4 µg/mL (≈ 9.54 µM) and an MIC (H. influenzae HI3542) of 4 µg/mL (≈ 9.54 µM). The MIC (M. catarrhalis BC3534) was greater than 64 µg/mL, the MIC (S pyogenes C203) was 1 µg/mL (≈ 2.38 µM) and the MIC (S. aureus UC-76) was 4 µg/mL (≈ 9.54 µM).
For CC(=O)NC[C@H]1CN(c2ccc3c(c2)OCCc2cn[nH]c2-3)C(=O)O1 [Example 37, (S)—N-[3-(4,5-Dihydro-1H-6-oxa-1,2-diaza-benzo[e]azulen-8-yl)-2-oxo-oxazolidin-5-ylmethyl]-acetamide], the MIC (E. coli Tol C) was greater than 64 µg/mL, the MIC (E. faecalis MGH-2) was 2 µg/mL (≈ 5.84 µM) and the MIC (H. influenzae HI3542) was 8 µg/mL (≈ 23.4 µM). The “MIC M. catarrhalis BC3534” value (M. catarrhalis BC3534) was 4 µg/mL (≈ 11.7 µM), the MIC (S pyogenes C203) was 0.5 µg/mL (≈ 1.46 µM) and the MIC (S. aureus UC-76) was 2 µg/mL (≈ 5.84 µM).
With CC(=O)NC[C@H]1CN(c2ccc3c(c2)OCCc2cnoc2-3)C(=O)O1 [Example 38, (S)—N-[3-(4,5-Dihydro-1,6-dioxa-2-aza-benzo[e]azulen-8-yl)-2-oxo-oxazolidin-5-ylmethyl]-acetamide] the MIC (E. coli Tol C) was greater than 64 µg/mL, the MIC (E. faecalis MGH-2) was 1 µg/mL (≈ 2.91 µM) and the MIC (H. influenzae HI3542) was 4 µg/mL (≈ 11.7 µM). For the same compound, the MIC (S pyogenes C203) was 0.5 µg/mL (≈ 1.46 µM) and the MIC (S. aureus UC-76) was 1 µg/mL (≈ 2.91 µM).
Compound CC(=O)NC[C@H]1CN(c2ccc3c(c2)OCCc2cn(C)nc2-3)C(=O)O1 [Example 39, (S)—N-[3-(2-Methyl4,5-dihydro-2H-6-oxa-1,2-diaza-benzo[e]azulen-8-yl)-2-oxo-oxazolidin-5-ylmethyl]-acetamide] has an MIC (E. coli Tol C) greater than 64 µg/mL, an MIC (E. faecalis MGH-2) of 32 µg/mL (≈ 89.8 µM) and an MIC (H. influenzae HI3542) greater than 64 µg/mL. For the same compound, the MIC (M. catarrhalis BC3534) was greater than 64 µg/mL, the MIC (S pyogenes C203) was 32 µg/mL (≈ 89.8 µM) and the MIC (S. aureus UC-76) was greater than 64 µg/mL.
With CC(=O)NC[C@H]1CN(c2ccc3c(c2)OCCc2cn[nH]c2-3)C(=O)O1 [drawing 124] the “MIC E. coli Tol C” value (E. coli Tol C) was greater than 64 µg/mL, the “MIC H. influenzae HI3542” value (H. influenzae HI3542) was 8 µg/mL (≈ 23.4 µM) and the “MIC M. catarrhalis BC3534” value (M. catarrhalis BC3534) was 16 µg/mL (≈ 46.7 µM).
In the case of “(S)—N-[2-Oxo-3-(2-phenethyl-4,5-dihydro-2H-6-oxa-1,2-diaza-benzo[e]azulen-8-yl)-oxazolidin-5-ylmethyl]-acetamide and (S)—N-[2-Oxo-3-(1-phenethyl-4,5-dihydro-1H-6-oxa-1,2-diaza-benzo[e]azulen-8-yl)-oxazolidin-5-ylmethyl]-acetamide [Example 42]”, the “MIC E. coli Tol C” value (E. coli Tol C) is reported as greater than 64 µg/mL, the “MIC E. faecalis MGH-2” value (E. faecalis MGH-2) is reported as 32 µg/mL and the “MIC H. influenzae HI3542” value (H. influenzae HI3542) is reported as greater than 64 µg/mL. The “MIC M. catarrhalis BC3534” value (M. catarrhalis BC3534) was greater than 64 µg/mL, the “MIC S pyogenes C203” value (S pyogenes C203) was 32 µg/mL and the “MIC S. aureus UC-76” value (S. aureus UC-76) was 32 µg/mL.
With “(S)—N-[3-(2-Benzyl-4,5-dihydro-2H-6-oxa-1,2-diaza-benzo[e]azulen-8-yl)-2-oxo-oxazolidin-5-ylmethyl]-acetamide and (S)—N-[3-(1-Benzyl-4,5-dihydro-1H-6-oxa-1,2-diaza-benzo[e]azulen-8-yl)-2-oxo-oxazolidin-5-ylmethyl]-acetamide [Example 41]” the “MIC E. coli Tol C” value (E. coli Tol C) was greater than 64 µg/mL, the “MIC E. faecalis MGH-2” value (E. faecalis MGH-2) was greater than 64 µg/mL and the “MIC H. influenzae HI3542” value (H. influenzae HI3542) was greater than 64 µg/mL. The “MIC M. catarrhalis BC3534” value (M. catarrhalis BC3534) was greater than 64 µg/mL, the “MIC S pyogenes C203” value (S pyogenes C203) was 32 µg/mL and the “MIC S. aureus UC-76” value (S. aureus UC-76) was greater than 64 µg/mL.
For “(S)—N-[3-(2-Ethyl-4,5-dihydro-2H-6-oxa-1,2-diaza-benzo[e]azulen-8-yl)-2-oxo-oxazolidin-5-ylmethyl]-acetamide and (S)—N-[3-(1-Ethyl-4,5-dihydro-1H-6-oxa-1,2-diaza-benzo[e]azulen-8-yl)-2-oxo-oxazolidin-5-ylmethyl]-acetamide [Example 40]”, the “MIC E. coli Tol C” value (E. coli Tol C) was greater than 64 µg/mL, the “MIC E. faecalis MGH-2” value (E. faecalis MGH-2) was greater than 64 µg/mL and the “MIC H. influenzae HI3542” value (H. influenzae HI3542) was greater than 64 µg/mL. The “MIC M. catarrhalis BC3534” value (M. catarrhalis BC3534) was greater than 64 µg/mL, the “MIC S pyogenes C203” value (S pyogenes C203) was 32 µg/mL and the “MIC S. aureus UC-76” value (S. aureus UC-76) was greater than 64 µg/mL.
